One assay has as its target Lck (h) (Homo sapiens, UniProt P06239). Kind of assay: Lck human STE kinase enzymatic radiometric assay. It is filed as biochemical. To be noted: read-out: Lck IC50 nM Range. Here is the method:
(b) Lck Human STE Kinase Enzymatic Radiometric Assay
Lck (h) is incubated with 50 mM Tris pH 7.5, 0.1 mM EGTA, 0.1 mM Na3VO4, 250 uM KVEKIGEGTYGVVYK (Cdc2 peptide), 10 mM MgAcetate and [gamma-33P]-ATP (specific activity and concentration as required). The reaction is initiated by the addition of the Mg/ATP mix. After incubation for 40 minutes at room temperature, the reaction is stopped by the addition of phosphoric acid to a concentration of 0.5%, 10 μL of the reaction is then spotted onto a P30 filtermat and washed four times for 4 minutes in 0.425% phosphoric acid and once in methanol prior to drying and scintillation counting. For more details on the kinase assay procedures see: Gao, Y. et. al.; Biochem J., 451 (2): 313-328, 2013.

For assay [1], the target named is T1, Recombinant (1-346) HPK1 (h) (Homo sapiens, UniProt Q92918).
T1 construct: Recombinant (1-346) HPK1 (h) is incubated with 8 mM MOPS pH 7.0
T1 sequence (Q92918 1-346): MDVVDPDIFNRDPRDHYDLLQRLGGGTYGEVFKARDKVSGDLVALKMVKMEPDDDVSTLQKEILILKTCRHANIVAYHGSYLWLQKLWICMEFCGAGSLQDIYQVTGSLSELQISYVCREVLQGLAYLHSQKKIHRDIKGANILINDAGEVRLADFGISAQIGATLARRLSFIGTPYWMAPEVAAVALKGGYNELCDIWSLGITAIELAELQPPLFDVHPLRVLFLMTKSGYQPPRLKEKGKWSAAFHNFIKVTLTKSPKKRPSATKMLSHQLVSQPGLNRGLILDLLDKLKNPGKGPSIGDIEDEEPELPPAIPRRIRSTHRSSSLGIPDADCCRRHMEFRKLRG
Kind of assay: HPK1 human STE kinase enzymatic radiometric assay. It is filed as biochemical. To be noted: read-out: HPK1 IC50 nM Range. An outline of the steps: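 Compounds in 3-fold, 9-point serial dilution; kinase (residues 1-346) phosphorylates myelin basic protein (0.33 mg/mL) using [gamma-33P]-ATP at pH 7.0 (MOPS, EDTA, Mg acetate) for 40 min, room temperature. Acid-quenched mixture filtered onto P30 mats; incorporated radioactivity read by scintillation counting.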

Where a name gives a salt, the structure may show the parent alone.

Chain of Lck (h) (P06239 whole entry): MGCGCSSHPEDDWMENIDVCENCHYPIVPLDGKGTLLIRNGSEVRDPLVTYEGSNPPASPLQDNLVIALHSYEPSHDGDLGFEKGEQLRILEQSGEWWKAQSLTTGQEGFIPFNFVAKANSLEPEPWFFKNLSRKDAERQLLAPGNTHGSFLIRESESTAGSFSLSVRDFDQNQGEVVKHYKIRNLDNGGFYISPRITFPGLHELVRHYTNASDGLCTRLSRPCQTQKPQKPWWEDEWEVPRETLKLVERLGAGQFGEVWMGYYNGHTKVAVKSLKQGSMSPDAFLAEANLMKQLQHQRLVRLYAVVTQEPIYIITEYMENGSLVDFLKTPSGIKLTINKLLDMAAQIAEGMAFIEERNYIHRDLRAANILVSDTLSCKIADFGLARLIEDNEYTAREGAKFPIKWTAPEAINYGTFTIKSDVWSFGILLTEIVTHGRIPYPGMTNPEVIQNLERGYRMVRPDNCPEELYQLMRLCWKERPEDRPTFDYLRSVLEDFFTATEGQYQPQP

Broadly, the IC50 is the midpoint of a concentration-inhibition curve. For the compound `CN(C)Cc1cc(-c2nc(-c3cc(F)c4c(c3)CCNC4=O)c(N)nc2F)ccc1C1CCOCC1` [Example I-83, 6-(3-amino-6-(3-((dimethylamino)methyl)-4-(tetrahydro-2H-pyran-4-yl)phenyl)-5-fluoropyrazin-2-yl)-8-fluoro-3,4-dihydroisoquinolin-1(2H)-one], the figures for the IC50 (on Lck (h); in assay [1]) were greater than 1000 nM and 0.1 to 10 nM, respectively.
Consider `CN1C[C@@H]2C[C@]2(c2ccc(-c3nc(-c4cc5c(cc4F)C(=O)NCC5)c(N)nc3F)cc2)C1` [Example I-5, 6-(3-amino-5-fluoro-6-(4-((1S,5R)-3-methyl-3-azabicyclo[3.1.0]hexan-1-yl)phenyl)pyrazin-2-yl)-7-fluoro-3,4-dihydroisoquinolin-1(2H)-one], for which the IC50 is greater than 1000 nM on Lck (h) and 0.1 to 10 nM in assay [1].
As for `CC(C)N1CCN(c2ccc(-c3nc(-c4ccc5c(=O)[nH]ccc5c4)c(N)nc3F)cc2)CC1` [Example I-20, 6-(3-amino-5-fluoro-6-(4-(4-isopropylpiperazin-1-yl)phenyl)pyrazin-2-yl)isoquinolin-1(2H)-one], the IC50 at Lck (h) was greater than 1000 nM; in assay [1], 0.1 to 10 nM.
In the case of `CN(C)Cc1cc(-c2nc(-c3cc4c(F)c[nH]c(=O)c4cc3F)c(N)nc2F)ccc1N1CCOCC1` [Example I-142, 6-(3-amino-6-(3-((dimethylamino)methyl)-4-morpholinophenyl)-5-fluoropyrazin-2-yl)-4,7-difluoroisoquinolin-1(2H)-one], the IC50 on Lck (h) is greater than 1000 nM; in assay [1], 0.1 to 10 nM.
For `CN(C)Cc1cc(-c2nc(-c3ccc4c(=O)[nH]cc(F)c4c3)c(N)nc2F)ccc1C1CCOCC1` [Example I-42, 6-(3-amino-6-(3-((dimethylamino)methyl)-4-(tetrahydro-2H-pyran-4-yl)phenyl)-5-fluoropyrazin-2-yl)-4-fluoroisoquinolin-1(2H)-one], in that order: greater than 1000 nM and 0.1 to 10 nM.
For `Cc1c[nH]c(=O)c2ccc(-c3nc(-c4ccc(N5CCN(C(C)C)CC5)cc4)c(F)nc3N)cc12` [Example I-62, 6-(3-amino-5-fluoro-6-(4-(4-isopropylpiperazin-1-yl)phenyl)pyrazin-2-yl)-4-methylisoquinolin-1(2H)-one], in that order: 101 to 1000 nM and 0.1 to 10 nM.
In the case of `CC(C)N1CCN(c2ccc(-c3nc(-c4ccc5c(c4)CCNC5=O)c(N)nc3Cl)cc2)CC1` [Example I-7, 6-(3-amino-5-chloro-6-(4-(4-isopropylpiperazin-1-yl)phenyl)pyrazin-2-yl)-3,4-dihydroisoquinolin-1(2H)-one], the IC50 on Lck (h) is greater than 1000 nM; in assay [1] it was 11 to 100 nM.
With `CN1C[C@H]2C[C@@]2(c2ccc(-c3nc(-c4cc5c(cc4F)C(=O)NCC5)c(N)nc3F)cc2)C1` [Example I-3, 6-(3-amino-5-fluoro-6-(4-((1R,5S)-3-methyl-3-azabicyclo[3.1.0]hexan-1-yl)phenyl)pyrazin-2-yl)-7-fluoro-3,4-dihydroisoquinolin-1(2H)-one], the results for the IC50 (on Lck (h); in assay [1]) were greater than 1000 nM and 0.1 to 10 nM, respectively.
For the compound `Cc1cc2cc(-c3nc(-c4ccc(C5CCOCC5)c(CN(C)C)c4)c(F)nc3N)cc(F)c2c(=O)[nH]1` [Example I-100, 6-(3-amino-6-(3-((dimethylamino)methyl)-4-(tetrahydro-2H-pyran-4-yl)phenyl)-5-fluoropyrazin-2-yl)-8-fluoro-3-methylisoquinolin-1(2H)-one], the IC50 is greater than 1000 nM at Lck (h) and 0.1 to 10 nM in assay [1].
The like results for `C[C@@H]1CN(c2ccc(-c3nc(-c4ccc5c(c4)CCNC5=O)c(N)nc3F)cc2CN(C)C)CCO1` [Example I-172, (R)-6-(3-amino-6-(3-((dimethylamino)methyl)-4-(2-methylmorpholino)phenyl)-5-fluoropyrazin-2-yl)-3,4-dihydroisoquinolin-1(2H)-one] were, in that order, greater than 1000 nM and 0.1 to 10 nM.
As for `Nc1nc(F)c(-c2ccc(C3CCOCC3)c([C@@H]3CCCN3)c2)nc1-c1ccc2c(c1)CCNC2=O` [Example I-18, (S)-6-(3-amino-5-fluoro-6-(3-(pyrrolidin-2-yl)-4-(tetrahydro-2H-pyran-4-yl)phenyl)pyrazin-2-yl)-3,4-dihydroisoquinolin-1(2H)-one], the IC50 on Lck (h) was greater than 1000 nM; in assay [1] it was 0.1 to 10 nM.
Take `CN(C)Cc1cc(-c2nc(-c3cc(F)c4c(=O)[nH]cc(F)c4c3)c(N)nc2F)ccc1C1CCOCC1` [Example I-121, 6-(3-amino-6-(3-((dimethylamino)methyl)-4-(tetrahydro-2H-pyran-4-yl)phenyl)-5-fluoropyrazin-2-yl)-4,8-difluoroisoquinolin-1(2H)-one]: the IC50 on Lck (h) is greater than 1000 nM; in assay [1], 0.1 to 10 nM.
The like results for `CC(C)N1CCC(c2ccc(-c3nc(-c4cc(F)c5c(c4)CCNC5=O)c(N)nc3F)cc2)CC1` [Example I-10, 6-(3-amino-5-fluoro-6-(4-(1-isopropylpiperidin-4-yl)phenyl)pyrazin-2-yl)-8-fluoro-3,4-dihydroisoquinolin-1(2H)-one] were, in that order, 101 to 1000 nM and 0.1 to 10 nM.
Take `Nc1nc(F)c(-c2ccc(C3CCN(CC4CC4)CC3)cc2)nc1-c1cc(F)c2c(c1)CCNC2=O` [Example I-13, 6-(3-amino-6-(4-(1-(cyclopropylmethyl)piperidin-4-yl)phenyl)-5-fluoropyrazin-2-yl)-8-fluoro-3,4-dihydroisoquinolin-1(2H)-one Formate]: the IC50 was greater than 1000 nM on Lck (h) and 0.1 to 10 nM in assay [1].
Take `CC(C1CC1)N1CCN(c2ccc(-c3nc(-c4cc(F)c5c(c4)CCNC5=O)c(N)nc3F)cc2)CC1` (single isomer, unassigned) [Example I-29, 6-(3-amino-6-(4-(4-(1-cyclopropylethyl)piperazin-1-yl)phenyl)-5-fluoropyrazin-2-yl)-8-fluoro-3,4-dihydroisoquinolin-1(2H)-one]: the figures for the IC50 (at Lck (h); in assay [1]) were 101 to 1000 nM and 0.1 to 10 nM, respectively.
Take `CC(C)N1CCN(c2ccc(-c3nc(-c4cc(F)c5c(=O)[nH]ccc5c4)c(N)nc3F)cc2)CC1` [Example I-21, 6-(3-amino-5-fluoro-6-(4-(4-isopropylpiperazin-1-yl)phenyl)pyrazin-2-yl)-8-fluoroisoquinolin-1(2H)-one]: the IC50 is 101 to 1000 nM at Lck (h) and 0.1 to 10 nM in assay [1].
Consider `Nc1nc(F)c(-c2ccc(C3CCOCC3)c(CN3CCCC3)c2)nc1-c1cc2c(cc1F)C(=O)NCC2` [Example I-148, 6-(3-amino-5-fluoro-6-(3-(pyrrolidin-1-ylmethyl)-4-(tetrahydro-2H-pyran-4-yl)phenyl)pyrazin-2-yl)-7-fluoro-3,4-dihydroisoquinolin-1(2H)-one], for which the IC50 at Lck (h) is greater than 1000 nM; in assay [1], 0.1 to 10 nM.
In the case of `Nc1nc(F)c(-c2ccc(N3CCN(CC4CC4)CC3)cc2)nc1-c1cc2cc[nH]c(=O)c2cc1F` [Example I-25, 6-(3-amino-6-(4-(4-(cyclopropylmethyl)piperazin-1-yl)phenyl)-5-fluoropyrazin-2-yl)-7-fluoroisoquinolin-1(2H)-one], the IC50 fell in the range of 101 to 1000 nM at Lck (h) and 0.1 to 10 nM in assay [1].
Take `CC(C)N1C[C@H]2C[C@@]2(c2ccc(-c3nc(-c4cc(F)c5c(c4)CCNC5=O)c(N)nc3F)cc2)C1` [Example I-15, 6-(3-amino-5-fluoro-6-(4-((1R,5S)-3-isopropyl-3-azabicyclo[3.1.0]hexan-1-yl)phenyl)pyrazin-2-yl)-8-fluoro-3,4-dihydroisoquinolin-1(2H)-one formate]: the IC50 at Lck (h) was greater than 1000 nM; in assay [1], 0.1 to 10 nM.
The like results for `CCN(C)Cc1cc(-c2nc(-c3cc4c(cc3F)C(=O)NCC4)c(N)nc2F)ccc1C1CCOCC1` [Example I-164, 6-(3-amino-6-(3-((ethyl(methyl)amino)methyl)-4-(tetrahydro-2H-pyran-4-yl)phenyl)-5-fluoropyrazin-2-yl)-7-fluoro-3,4-dihydroisoquinolin-1(2H)-one] were, in that order, greater than 1000 nM and 0.1 to 10 nM.
The like results for `CN1C[C@@H]2C[C@]2(c2ccc(-c3nc(-c4ccc5c(=O)[nH]cc(F)c5c4)c(N)nc3F)cc2)C1` [Example I-80, 6-(3-amino-5-fluoro-6-(4-((1S,5R)-3-methyl-3-azabicyclo[3.1.0]hexan-1-yl)phenyl)pyrazin-2-yl)-4-fluoroisoquinolin-1(2H)-one] were, in that order, greater than 1000 nM and 0.1 to 10 nM.
As to `Cc1c[nH]c(=O)c2ccc(-c3nc(-c4ccc(C5CCOCC5)c(CN(C)C)c4)c(F)nc3N)cc12` [Example I-98, 6-(3-amino-6-(3-((dimethylamino)methyl)-4-(tetrahydro-2H-pyran-4-yl)phenyl)-5-fluoropyrazin-2-yl)-4-methylisoquinolin-1(2H)-one], the IC50 was greater than 1000 nM on Lck (h) and 0.1 to 10 nM in assay [1].

For the origin of these results see US20240425479A1, “HALO-SUBSTITUTED AMINO AZA-HETEROARYL COMPOUNDS AS INHIBITORS OF THE HAEMATOPOIETIC PROGENITOR KINASE 1 (HPK1)” (priority 2021, published 2024).
